Reference: patent publication US5324633A, “Method and apparatus for measuring binding affinity” (Affymax Technologies N.V., priority 1991, dated 1994)
Read-outs that look alike come from different tables or passages of the source. Where no end group is shown, it is not given here.

Assays:
Herz antibody [1] = test: Binding affinity of fluorescein-labelled receptor to surface-bound peptide, confocal fluorescence intensity at varying receptor concentrations
Description: At step 104 the array or arrays of polymers are exposed to a receptor at a first solution concentration [R]1. According to some embodiments the receptor is marked with an appropriate label such as a fluorescein tag. Fluorescent tags are preferred because the measurements herein are usually taken with a receptor solution in contact with the immobilized ligands to ensure that the immobilized ligand are in equilibrium with the receptor. […] Confocal microscopy provides one preferred method of distinguishing between surface receptor fluorescence and background fluorescence from bulk solution receptors, due to the limited depth of field of a confocal microscope. Because the microscope cannot completely exclude fluorescence from bulk solution, contributions of the bulk fluorescence can be eliminated by comparing areas of derivatized and underivatized substrates. This method for eliminating background fluorescence may not be accurate at high receptor concentrations, when non-specific receptor binding to underivatized substrates becomes non-negligible.
At step 106 the array of the polymers is exposed to the receptor, for a time sufficient to allow receptor-ligand interaction, preferably to equilibrium conditions, and at step 108 the fluorescence intensity of the receptor at each of the concentrations [R]n is determined for each of the ligands on each array. […]
At step 110 this information is fit to analysis equations or otherwise processed for determination of the binding affinity of the receptor to the various ligands on the substrate and at step 112 the Kd values, among others, are extracted. In a most preferred embodiment the data are used to determine binding affinity by determining the slope of a best fit line through a plot having, on the y-axis, the ratio of fluorescence intensity to receptor concentration and, on the x-axis, the fluorescence intensity. […] To faciltate comparison to other experiments, one can plot normalized fluorescence intensity on the y axis or receptor concentration on the x axis. […]

Herz antibody [2] = conditions: solution, comparison value, cited from earlier work

Substance | binding affinity by interpolating plot of relative fluorescence intensity vs log10 receptor concentration (FIG. 5) (Herz antibody [1]; interpolated between 10^-8 M and 10^-9 M curves, peptide synthesized as free peptide then immobilized on surface) | Kd from slope of best fit line, ratio of fluorescence intensity to receptor concentration vs fluorescence intensity (FIG. 4) (Herz antibody [1]; peptide synthesized on substrate, equilibrium over about 24 hours, non-derivatized substrate background subtracted) [µM] | Kd (Herz antibody [2]; read-out: Kd value from other solution experiments) [µM] | Kd (Herz antibody [1]; sequences synthesized on different chips, exposed to Herz antibody, read-out: Kd / binding affinity from isotherms (FIG. 6)) [µM] | Kd (Herz antibody [2]; read-out: binding affinity value from other solution experiments) [µM]
YGGFL | about 1.8×10^-8 M | 0.018 | 0.01 |  | 
YGTFL (not fully specified) |  |  |  | ~0.7 | 0.5
